Reference: patent US20160346249A1 (priority 2012, published 2016)

Tests used:
[1] = 12-month dog toxicity and toxicokinetic study; type: in vivo; settings: dog, in vivo
Method: Blood samples were collected on Days 0, 91, 181, 268 and 358 from up to 4 animals/gender/group. Plasma samples collected on Days 91, 181, 268, as well as all plasma samples collected from the control group were not evaluated.
For toxicology assessment four dogs of each gender were included in each group. Assessments included clinical observations, body weight, and food consumption measures which were recorded periodically during the study. Ophthalmic examinations were performed during Weeks 1, 12, 25, 38, 51, and 55 (recovery period). Electrocardiograms were recorded during Weeks 2, 12, 25, 38, and 51. Clinical pathology evaluations (hematology, serum chemistry, and urinalysis) were performed during Weeks 1, 12, 25, 38, 52, and 56 (recovery period). At termination, complete necropsies were performed on all dogs and selected organs were weighed. Selected tissues from the control and 20 (15) mg/kg/day group animals and animals euthanized in extremis were examined microscopically. Sections of livers from dogs in the control and 20 (15) mg/kg/day groups were collected at both the primary and 4-week post-treatment recovery necropsies for assessment of drug metabolism enzyme (microsomal cytochrome P450) activity.

[2] = 13-week mouse toxicity and toxicokinetic study; settings: Crl:CD-1(ICR) BR, in vivo, 0 day
Method: For toxicology assessment ten mice of each gender were placed in each group.
Ophthalmic examinations were performed during Weeks −1 and 12.

[3] = test system: FMO, human liver microsome (HLM); assay: FMO dependent metabolism (pre-incubation temperature), human liver microsomes
Method: The microsomal incubation mixtures (ca. 0.2 mL) were prepared in triplicate in 0.1M potassium phosphate buffer (pH 7.4) containing 0.25 mg/mL microsomal protein (RLM and HLM), 1 mM EDTA, 4 mM MgCl2, and […]. Incubation mixtures were pre-incubated aerobically in a shaking water bath at 37° C. and 45° C. respectively for ca. 5 minutes. The reaction was initiated by the addition of NADPH (final concentration of 1 mM). […] For the positive controls, benzydamine (Sigma-Aldrich, St. Louis, Mo.) (final concentration 200 μM) was used in the incubation mixture. For the negative controls, water was used in the incubation mixtures instead of microsome protein. The mixtures were kept at ca. −20° C. before analysis by LC-MS/MS.
The incubation of benzydamine (positive control, 200 μM) was carried out concurrently and the formation of benzydamine N-oxide was monitored by LC-MS/MS.

[4] = In vitro metabolism in human hepatocytes; settings: male, human, 4 h, 87 μM
Method: Cryopreserved human hepatocytes (male) that are prepared by XenoTech, LLC (Lenexa, Kans.), are thawed on the day of use and resuspended in Waymouth's incubation media. The enzymatic activity of hepatocytes is monitored using 7-ethoxycoumarin and 7-hydroxycoumarin as substrates. […] The incubations are carried out for 4 hours with 1×10^6 viable cells/ml. […] At 0 and 4 hour, cell suspensions are extracted using two volumes of ice cold methanol. After centrifugation, the extracts are stored at −20° C. until further sample processing. The solvent in the samples are dried under a stream of nitrogen, and resuspended in methanol:water (1:1) before analysis.
The extracts of the 4 hour incubation mixture are analyzed by liquid chromatography/electrospray ionization-mass spectrometry (LC/ESI-MS) in the positive and negative ion modes to screen for possible metabolites. HPLC Methods 1 and 2 are used to find potential metabolites, and the HPLC and mass spectrometry systems are described in Table 56. The same instrumentation and methods in HPLC Method 1 are used in HPLC Method 2 with the exception that the mobile phases and gradient are changed to 0.4% HCOOH in H2O for mobile A and CH3OH for mobile phase B. The mass spectrometer is LCQ™ Ion Trap Mass Spectrometer and is in either the positive or negative electrospray mode with the ion spray set at 4.5 kV. The capillary temperature is 250° C., the nitrogen sheath gas flow rate is ˜80 unit, the auxiliary nitrogen gas flow rate is 20 unit, and the collision gas is helium.

## O=C1NCC2(c3ccc(Cl)c(Cl)c3)CC12 (stereo not shown) [EB-10101, 5-(3,4-dichloro-phenyl)-3-aza-bicyclo[3.1.0]hexan-2-one]
[1]
  AUC0-24 of metabolite relative to parent drug, any individual animal: ≤ 3.5 fold
[2]
  exposure to metabolite relative to parent drug: 2-5 fold
[3]
  FMO mediation of formation: not FMO-mediated in humans
[4]
  share of the metabolites formed: about 63%
